Data from patent US11691989B2, “Macrocyclic indoles as Mcl-1 inhibitors” (ASCENTAGE PHARMA (SUZHOU) CO., LTD., priority 2018, dated 2023).
pIC50: −log10 of the molar value.

Tests used:
[1] = test system: OPM-2 cells; assay: Cell viability assay (OPM-2 cells), CCK-8; assay type: cell-based; conditions: Homo sapiens, OPM-2, 24 h, 5% FBS
Description: Cell Viability Assay (OPM-2 cells)
OPM-2 cells were obtained from Deutsche Sammlung von Mikroorganismen and Zellkulturen GmbH (DSMZ). Cells were maintained in the recommended culture medium with 10% FBS at 37° C. and an atmosphere of 5% CO2.
The effect of representative Compounds of the Disclosure on cell viability was determined using Cell Counting Kit-8 (CCK-8) assay (Shanghai Life iLab Bio Technology) according to the manufacturer's instructions. Each tested compound was serially diluted in culture medium, 100 μL of the compound dilution was added into 96-well plates. 100 μL of an OPM-2 cell suspension (20000 cells/well) in culture medium were seeded into the corresponding well of the plate and the cells were incubated at 37° C. in an atmosphere of 5% CO2 for 24 hours. In the next day, 20 μL of CCK-8 solution was added to each well of the plate and incubated for 4 hours.
The plates were read at 450 nm on the microplate spectrophotometer (SpectraMax plus 384, Molecular devices). The readings were normalized to the vehicle cells, and the IC50 was calculated by nonlinear regression analysis using GraphPad Prism 6 software.

[2] = target: Mcl-1 protein (residues 171-323) (Homo sapiens (Human), UniProt Q07820); assay: Inhibition of Mcl-1 by fluorescence polarization (FP) competitive binding assay with FAM-Bid tracer; conditions: 2 nM FAM-Bid, 20 nM Mcl-1, 30 min, read-out: Mc1-1 (FP)
Description: Inhibition of Mcl-1 by fluorescence polarization (FP) assay.
The method used a fluorescein labelled peptide (FAM-Bid) which binds to the Mcl-1 protein leading to an increased anisotropy measured in milli-polarization (mP) values using a plate reader.
A 10-points serial dilution of each compound was prepared in DMSO and 5 μL solution was transferred into flat bottomed, 96-well back plate (final DMSO concentration 5%). 120 μL of Buffer (PBS, 0.01% BGG (Sigma Cat. #SRE0011), 0.01% Triton X-100), containing the Fluorescein labelled peptide (Final concentration 2 nM) and Mcl-1 protein (final concentration 20 nM) was then added. […] 10-points dose response curves were plotted with GraphPad software using Sigmoidal Dose-Response Model and the IC50 values were determined by nonlinear regression fitting of the competition curves.

[3] = test system: NCI-H929 cells; assay: Cell viability assay (NCI-H929 cells), CCK-8; assay type: cell-based; conditions: Homo sapiens, NCI-H929, 24 h, 5% FBS
Description: Cell Viability Assay (NCI-H929 cells)
NCI-H929 cells were obtained from American Type Culture Collection (ATCC). Cells were maintained in the recommended culture medium (RPMI 1640) with 10% FBS and 0.05 mM BME at 37° C. and an atmosphere of 5% CO2.
The effect of Compounds on cell viability was determined using Cell Counting Kit-8 (CCK-8) assay according to the manufacturer's instructions. 95 μL of NCI-H929 cell suspension (20000 cells/well) in culture medium were seeded into 96-well plates and cultured 4 hrs. Each tested compound was serially diluted in DMSO, then 5 μL of the compound or DMSO was diluted in 95 μL medium once more. At last, 5 μL of the compound dilution was added to the corresponding well of the cell plate. After the addition of the tested compound, the cells were incubated at 37° C. in an atmosphere of 5% CO2 for 24 hrs. At the end, 10 μL of CCK-8 solution was added to each well of the plate and incubated for 1-4 hours. The plates were read at 450 nm on the microplate reader (BioTek Synergy 1MF). The readings were normalized to the vehicle cells, and the IC50 was calculated by nonlinear regression analysis using GraphPad Prism 6 software.

Chain of Mcl-1 protein (residues 171-323) (Q07820 171-323): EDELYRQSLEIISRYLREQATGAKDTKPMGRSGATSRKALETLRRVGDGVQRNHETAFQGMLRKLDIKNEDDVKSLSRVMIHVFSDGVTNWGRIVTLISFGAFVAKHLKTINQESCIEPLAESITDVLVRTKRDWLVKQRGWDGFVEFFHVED

Row | pIC50 [2] | pIC50 [3] | SMILES | pIC50 [1]
1 | 8.40 | 5.73 | CNC(=O)Cn1nc2c(c1C)-c1c(Cl)ccc3c1c(C)c(C(=O)O)n3CCCOc1cc(cc3ccccc13)SCc1cc(nn1C)CSC2 [Cpd. No. 10, (Z)-1^5-chloro-1^3,2^5,6^1-trimethyl-2^1-(2-(methylamino)-2-oxoethyl)-1^1H,2^1H,6^1H-10-oxa-4,8-dithia-1(4,1)-indola-2(4,3),6(3,5)-dipyrazola-9(3,1)-naphthalenacyclotridecaphane-1^2-carboxylic acid] | 5.39
2 |  | 6.74 | Cc1c2c(nn1C)CSCc1cc(n(C)n1)CSc1cc(c3ccc(F)cc3c1)OCCCn1c(C(=O)O)cc3c-2c(Cl)ccc31 [Cpd. No. 13, (Z)-1^5-chloro-9^6-fluoro-2^1,2^5,6^1-trimethyl-1^1H,2^1H,6^1E-10-oxa-4,8-dithia-1(4,1)-indola-2(4,3),6(3,5)-dipyrazola-9(3,1)-naphthalenacyclotridecaphane-1^2-carboxylic acid] | 6.19
3 | 8.00 | 6.35 | Cc1c2c(nn1C)CSCc1cc(n(C)n1)CSc1cc(c3ccc(F)cc3c1)OCCCn1c(C(=O)O)c(F)c3c-2c(Cl)ccc31 [Cpd. No. 19, (Z)-1^5-chloro-1^3,9^6-difluoro-2^1,2^5,6^1-trimethyl-1^1H,2^1H,6^1H-10-oxa-4,8-dithia-1(4,1)-indola-2(4,3),6(3,5)-dipyrazola-9(3,1)-naphthalenacyclotridecaphane-1^2-carboxylic acid] | 6.35
4 | 8.00 | 6.77 | Cc1c(C(=O)O)n2c3ccc(F)c(c13)-c1c(nn(C)c1C)CSCc1cc(n(C)n1)CSc1cc(c3ccc(F)cc3c1)OCCC2 [Cpd. No. 21, (Z)-1^5,9^6-difluoro-1^3,2^1,2^5,6^1-tetramethyl-1^1H,2^1H,6^1H-10-oxa-4,8-dithia-1(4,1)-indola-2(4,3), 6(3,5)-dipyrazola-9(3,1)-naphthalenacyclotridecaphane-1^2-carboxylic acid] | 6.65
5 | 7.68 | 5.37 | Cc1c2c(nn1C)CSCc1cc(n(C)n1)CSc1cc(c3ccc(F)cc3c1)OCCCn1c(C(=O)O)c(C#N)c3c-2c(Cl)ccc31 [Cpd. No. 25, (Z)-1^5-chloro-1^3-cyano-9^6-fluoro-2^1,2^5,6^1-trimethyl-1^1H,2^1H,6^1H-10-oxa-4,8-dithia-1(4,1)-indola-2(4,3),6(3,5)-dipyrazola-9(3,1)-naphthalenacyclotridecaphane-1^2-carboxylic acid] | 5.22
6 | 7.82 | 6.55 | COCCn1nc(C)c2c1CSCc1cc(n(C)n1)CSc1cc(c3ccccc3c1)OCCCn1c(C(=O)O)c(C)c3c-2c(Cl)ccc31 [Cpd. No. 27, (Z)-1^5-chloro-2^1-(2-methoxyethyl)-1^3,2^3,6^1-trimethyl-1^1H,2^1H,6^1H-10-oxa-4,8-dithia-1(4,1)-indola-2(4,5),6(3,5)-dipyrazola-9(3,1)-naphthalenacyclotridecaphane-1^2-carboxylic acid] | 6.59
7 | 7.77 | 5.73 | Cc1c(C(=O)O)n2c3ccc(Cl)c(c13)-c1c(nn3c1COCC3)CN(S(C)(=O)=O)Cc1cc(n(C)n1)CSc1cc(c3ccc(F)cc3c1)OCCC2 [Cpd. No. 30, (Z)-1^5-chloro-9^6-fluoro-4-(isopropylsulfonyl)-1^3, 6^1-di methyl-2^6,2^7-dihydro-1^1H,2^4H,6^1H-10-oxa-8-thia-4-aza-2(3,2)-pyrazolo[5,1-c][1,4]oxazina-1(4,1)-indola-6(3,5)-pyrazola-9(3,1)-naphthalenacyclotridecaphane-1^2-carboxylic acid] | 5.28
8 | 7.57 | 6.16 | Cc1c(C(=O)O)n2c3ccc(Cl)c(c13)-c1c(nn(C)c1C)CN(S(=O)(=O)c1cnn(C)c1)Cc1cc(n(C)n1)CSc1cc(c3ccc(F)cc3c1)OCCC2 [Cpd. No. 36, (Z)-1^5-chloro-9^6-fluoro-1^3,2^1,2^5,6^1-tetramethyl-4#1-methyl-1H-pyrazol-4-yl)sulfonyl)-1^1H,2^1H,6^1H-10-oxa-8-thia-4-aza-1(4,1)-indola-2(4,3),6(3,5)-dipyrazola-9(3,1)-naphthalenacyclotridecaphane-1^2-carboxylic acid] | 5.70
9 | 7.54 | 5.82 | Cc1c(C(=O)O)n2c3ccc(Cl)c(c13)-c1c(nn(C)c1C)CN(S(=O)(=O)c1ccn(C)n1)Cc1cc(n(C)n1)CSc1cc(c3ccc(F)cc3c1)OCCC2 [Cpd. No. 37, (Z)-1^5-chloro-9^6-fluoro-1^3,2^1,2^5,6^1-tetramethyl-4#1-methyl-1H-pyrazol-3-yl))sulfonyl)-1^1H,2^1H,6^1H-10-oxa-8-thia-4-aza-1(4,1)-indola-2(4,3),6(3,5)-dipyrazola-9(3,1)-naphthalenacyclotridecaphane-1^2-carboxylic acid] | 5.50
10 | 8.15 | 6.57 | CNS(=O)(=O)N1Cc2cc(n(C)n2)CSc2cc(c3ccc(F)cc3c2)OCCCn2c(C(=O)O)c(C)c3c(c(Cl)ccc32)-c2c(nn(C)c2C)C1 [Cpd. No. 38, (Z)-1^5-chloro-9^6-fluoro-1^3,2^1,2^5,6^1-tetramethyl-4-(N-methylsulfamoyl)-1^1H,2^1H,6^1H-10-oxa-8-thia-4-aza-1 (4,1)-indola-2(4,3),6(3,5)-dipyrazola-9(3,1)-naphthalenacyclotridecaphane-1^2-carboxylic acid] | 6.27
11 | 7.89 | 6.80 | Cc1c(C(=O)O)n2c3ccc(Cl)c(c13)-c1c(nn(C)c1C)CN(S(=O)(=O)N(C)C)Cc1cc(n(C)n1)CSc1cc(c3ccc(F)cc3c1)OCCC2 [Cpd. No. 40, (Z)-1^5-chloro-9^6-fluoro-1^3,2^1,2^5,6^1-tetramethyl-4-(N, N-dimethylsulfamoyl)-1^1H,2^1H,6^1H-10-oxa-8-thia-4-aza-1 (4,1)-indola-2(4,3),6(3,5)-dipyrazola-9(3,1)-naphthalenacyclotridecaphane-1^2-carboxylic acid] | 6.72
12 | 7.77 | 6.70 | Cc1c(C(=O)O)n2c3ccc(Cl)c(c13)-c1c(nn(C)c1C)CN(S(=O)(=O)c1cccnc1)Cc1cc(n(C)n1)CSc1cc(c3ccc(F)cc3c1)OCCC2 [Cpd. No. 41, (Z)-1^5-chloro-9^6-fluoro-1^3,2^1,2^5,6^1-tetramethyl-4-(pyridin-3-ylsulfonyl)-1^1H,2^1H,6^1H-10-oxa-8-thia-4-aza-1 (4,1)-indola-2(4,3),6(3,5)-dipyrazola-9(3,1)-naphthalenacyclotridecaphane-1^2-carboxylic acid] | 6.56
13 | 7.66 | 6.11 | Cc1c(C(=O)O)n2c3ccc(Cl)c(c13)-c1c(nn(C)c1C)CN(C(=O)c1ccccn1)Cc1cc(n(C)n1)CSc1cc(c3ccc(F)cc3c1)OCCC2 [Cpd. No. 42, (Z)-1^5-chloro-9^6-fluoro-1^3,2^1,2^5,6^1-tetramethyl-4-picolinoyl-1^1H,2^1H,6^1H-10-oxa-8-thia-4-aza-1 (4,1)-indola-2(4,3),6(3,5)-dipyrazola-9(3,1)-naphthalenacyclotridecaphane-1^2-carboxylic acid] | 5.82
14 | 7.66 | 6.21 | Cc1c(C(=O)O)n2c3ccc(Cl)c(c13)-c1c(nn(C)c1C)CN(C(=O)c1ncco1)Cc1cc(n(C)n1)CSc1cc(c3ccc(F)cc3c1)OCCC2 [Cpd. No. 43, (Z)-1^5-chloro-9^6-fluoro-1^3,2^1,2^5,6^1-tetramethyl-4-(oxazole-2-carbonyl)-1^1H,2^1H,6^1H-10-oxa-8-thia-4-aza-1(4,1)-indola-2(4,3),6(3,5)-dipyrazola-9(3,1)-naphthalenacyclotridecaphane-1^2-carboxylic acid] | 5.90
